# Measurements: patent publication US20230115298A1, “METHOD FOR CONTROLLING THE GROWTH OF UNDESIRABLE VEGETATION” (UPL Limited, priority 2021, published 2023)
# System: weedy Glycine max
# Experiment: Greenhouse trials, post-emergence herbicidal efficacy of L-glufosinate, other herbicides and their combinations (observed vs Colby expected)
# Type: in vivo
# Details: for Control %: Table 1
# Experimental: Greenhouse trials were carried out to evaluate the efficacy of the combination of L-glufosinate and the other herbicides on weedy Glycine max. The soil used was sandy clay loam—Sand: 68.0%; Silt: 8.0%; Clay: 24.0%. All treatments were in 3 replications per treatment with a spray volume of […].
# The expected efficacy of a combination of L-glufosinate and the other herbicides was calculated using the well-established Colby method. Any difference between the observed and “expected” efficacy could be attributed to synergy between the two compounds.
# In the Colby method, the expected (or predicted) response of a combination of herbicides is calculated by taking the product of the observed response for each individual component of the combination when applied alone, divided by 100, and subtracting this value from the sum of the observed response for each component when applied alone. An unexpected enhancement in efficacy of the combination is then determined by comparing the observed response of the combination to the expected (or predicted) response as calculated from the observed response of each individual component alone. If the observed response of the combination is greater than the expected (or predicted) response, or stated conversely, if the difference between the observed and expected response is greater than zero, then the combination is said to be synergistic or unexpectedly effective (Colby, S. R., Weeds, 1967(15), p. 20-22). The Colby method requires only a single dose of each herbicide applied alone and the mixture of both doses. The formula used to calculate the expected efficacy (EE) which was compared with the observed efficacy (OE) to determine the efficacy of the present invention is explained hereinbelow:
# The expected efficacy for a combination of two active ingredients is as follows:
# The expected efficacy for a combination of three active ingredients is as follows:
# […] The target weed was weedy Glycine max, and the concentration of the herbicide and the results are recorded in the table 1 below:
# [1] = 14 DAA, dose a.i. g/h: L-glufosinate 150, oxyfluorfen 107.1, imazethapyr 75, carfentrazone 7.5
# [2] = 21 DAA, dose a.i. g/h: L-glufosinate 150, oxyfluorfen 107.1, imazethapyr 75, carfentrazone 7.5
# [3] = 28 DAA, dose a.i. g/h: L-glufosinate 150, oxyfluorfen 107.1, imazethapyr 75, carfentrazone 7.5
# [4] = 35 DAA, dose a.i. g/h: L-glufosinate 150, oxyfluorfen 107.1, imazethapyr 75, carfentrazone 7.5
compound,measurement,setting,value
"O=C(O)COc1ccc(Cl)cc1Cl [2,4-D]",% control,"Table 4, 7 DAA, g ai/h: L-glufosinate 150, 2,4-D 204",41.7%
same,% control,"Table 4, 14 DAA, g ai/h: L-glufosinate 150, 2,4-D 204",42.7%
same,% control,"Table 4, 21 DAA, g ai/h: L-glufosinate 150, 2,4-D 204",50.7%
same,% control,"Table 4, 28 DAA, g ai/h: L-glufosinate 150, 2,4-D 204",53.3%
same,% control,"Table 4, 35 DAA, g ai/h: L-glufosinate 150, 2,4-D 204",48.3%
"Cc1nn(-c2cc(CC(Cl)C(=O)O)c(Cl)cc2F)c(=O)n1C(F)F (stereo not shown) [Carfentrazone, carfentrazone]",Control %,[1],50.3%
same,Control %,"14 DAA, dose a.i. g/h: carfentrazone 9.0, L-glufosinate 150",51.7%
same,Control %,[2],44.3%
same,Control %,"21 DAA, dose a.i. g/h: carfentrazone 9.0, L-glufosinate 150",51.0%
same,Control %,[3],44.3%
same,Control %,"28 DAA, dose a.i. g/h: carfentrazone 9.0, L-glufosinate 150",51.0%
same,Control %,[4],39.3%
same,Control %,"35 DAA, dose a.i. g/h: carfentrazone 9.0, L-glufosinate 150",46.7%
"CCSC(C)CC1CC(=O)C(/C(CC)=N/OC/C=C/Cl)=C(O)C1 (stereo not shown) [Clethodim, clethodim]",% control,"Table 6, 3 DAA, g ai/h: L-glufosinate 150, clethodim 45",0%
same,% control,"Table 6, 7 DAA, g ai/h: L-glufosinate 150, clethodim 45",0%
same,% control,"Table 6, 14 DAA, g ai/h: L-glufosinate 150, clethodim 45",0%
same,% control,"Table 6, 21 DAA, g ai/h: L-glufosinate 150, clethodim 45",0%
same,% control,"Table 6, 28 DAA, g ai/h: L-glufosinate 150, clethodim 45",0%
same,% control,"Table 6, 35 DAA, g ai/h: L-glufosinate 150, clethodim 45",0%
"C#CCN1C(=O)COc2cc(F)c(N3C(=O)C4=C(CCCC4)C3=O)cc21 [Flumioxazin, flumioxazin]",% control,"Table 3, 3 DAA, g ai/h: L-glufosinate 150, flumioxazin 30",7.7%
same,% control,"Table 3, 7 DAA, g ai/h: L-glufosinate 150, flumioxazin 30",31.7%
same,% control,"Table 3, 21 DAA, g ai/h: L-glufosinate 150, flumioxazin 30",40%
same,% control,"Table 3, 28 DAA, g ai/h: L-glufosinate 150, flumioxazin 30",40%
same,% control,"Table 3, 35 DAA, g ai/h: L-glufosinate 150, flumioxazin 30",30%
"O=C(O)CNCP(=O)(O)O [Glyphosate, glyphosate]",% control,"Table 2, 3 DAA, g ai/h: L-glufosinate 150, glyphosate 379",0%
same,% control,"Table 2, 7 DAA, g ai/h: L-glufosinate 150, glyphosate 379",0%
same,% control,"Table 2, 14 DAA, g ai/h: L-glufosinate 150, glyphosate 379",0%
same,% control,"Table 2, 21 DAA, g ai/h: L-glufosinate 150, glyphosate 379",0%
same,% control,"Table 2, 28 DAA, g ai/h: L-glufosinate 150, glyphosate 379",0%
same,% control,"Table 2, 35 DAA, g ai/h: L-glufosinate 150, glyphosate 379",0%
"CC(Oc1ccc(Oc2ncc(C(F)(F)F)cc2Cl)cc1)C(=O)O (stereo not shown) [Haloxyfop, haloxyfop]",% control,"Table 7, 3 DAA, g ai/h: L-glufosinate 150, haloxyfop 50",5%
same,% control,"Table 7, 7 DAA, g ai/h: L-glufosinate 150, haloxyfop 50",13.3%
same,% control,"Table 7, 14 DAA, g ai/h: L-glufosinate 150, haloxyfop 50",15%
same,% control,"Table 7, 21 DAA, g ai/h: L-glufosinate 150, haloxyfop 50",12.3%
same,% control,"Table 7, 28 DAA, g ai/h: L-glufosinate 150, haloxyfop 50",12.3%
same,% control,"Table 7, 35 DAA, g ai/h: L-glufosinate 150, haloxyfop 50",12.3%
"CCc1cnc(C2=NC(C)(C(C)C)C(=O)N2)c(C(=O)O)c1 (stereo not shown) [Imazethapyr, imazethapyr]",Control %,[1],10%
same,Control %,[2],20.0%
same,Control %,[3],20.0%
same,Control %,[4],15.0%
"CCOc1cc(Oc2ccc(C(F)(F)F)cc2Cl)ccc1[N+](=O)[O-] [Oxyfluorfen, oxyfluorfen]",Control %,[1],46.7%
same,Control %,[2],45.0%
same,Control %,[3],43.3%
same,Control %,[4],35.0%
"O=C(O)COc1nc(Cl)c(Cl)cc1Cl [Triclopyr, triclopyr]",% control,"Table 5, 7 DAA, g ai/h: L-glufosinate 150, triclopyr 288",50%
same,% control,"Table 5, 14 DAA, g ai/h: L-glufosinate 150, triclopyr 288",79.3%
